Source: patent publication US20150125452A1, “COMBINATION TREATMENTS COMPRISING C-MET ANTAGONISTS AND B-RAF ANTAGONISTS” (GENENTECH, INC., priority 2011, published 2015)

Legend:
[1] = system: kinase-addicted cancer cell lines; assay: RTK ligand matrix screen, Syto 60 cell viability; type: cell-based, Human
Procedure: (§1) Cell viability was assessed using the nucleic acid stain Syto 60 (Invitrogen). Cells (3000-5000 per well) were seeded into 96 well plates and allowed to adhere overnight. The next day, cells were treated with (or without) 50 ng/mL RTK ligand and concomitantly exposed to an increasing concentration range of the relevant kinase inhibitor. Following 72 hours drug exposure, cells were fixed in 4% formaldehyde, stained with Syto 60 and cell number was assessed using an Odyssey scanner (Li-Cor). Cell viability was calculated by dividing the fluorescence obtained from the drug-treated cells by the fluorescence obtained from the control (no drug) treated cells.
Cell lines. Human cancer cell lines were obtained and tested for sensitivity using an automated platform as previously described (Johannessen, C. M. et al. COT drives resistance to RAF inhibition through MAP kinase pathway reactivation. Nature 468, 968-972, doi:10.1038/nature09627 (2010)). Cell lines were maintained at 37° C. in a humidified atmosphere at 5% CO2 and grown in RPMI 1640 or DMEM/F12 growth media (GIBCO) supplemented with 10% fetal bovine serum (GIBCO), 50 units/mL penicillin and 50 μg/mL streptomycin (GIBCO).
Using 41 different human tumor-derived cell lines with previously defined kinase dependency^7-9, we undertook a “matrix analysis” to examine the effects of 6 different RTK ligands (HGF, EGF, FGF, PDGF, NRG1, IGF)—known to be widely expressed in cancer cells and tumor stroma^10—on drug response. Specifically, we quantified the effect of exposing these cancer cell lines (e.g., AU565 (HER2 amp)) to each ligand on the IC50 for a kinase inhibitor (e.g., lapatinib) that otherwise potently suppresses their growth within 72 hours (FIG. 1A). Nearly all of the kinase-dependent cancer cell lines tested, which included cells derived from multiple tissue types and with distinct kinase dependencies (EGFR, HER2, BRAF, MET, ALK, PDGFR, and FGFR), could be rescued from drug-induced growth inhibition by one or more RTK ligands, highlighting the potentially broad contribution of these ligands to the response to selective kinase inhibitors in kinase-addicted tumor cells (FIG. 1B).

[2] = system: HER2-amplified breast cancer cell lines; assay: Syto 60 cell viability, ligand rescue from lapatinib; type: cell-based, Human; settings: 50 ng/mL ligand, 72 h
Procedure: as §1
The ability of HGF to rescue 3 of 9 tested HER2-amplified breast cancer cell lines from growth inhibition by the HER2 kinase inhibitor lapatinib was also unexpected (FIG. 3A). These 3 cell lines all express MET, and expression was well correlated with the ability of HGF to attenuate lapatinib response (FIG. 3B).

## HGF: recombinant human RTK ligand (MET ligand) purchased from Peprotech
[1]; 50 ng/mL RTK ligand, 72 h, 41 cell lines
  effect of RTK ligand on conferring drug resistance to kinase inhibitors: most broadly active ligands
[1]; BRAF mutant PLX[…]-sensitive melanoma and colorectal cell lines
  effect of HGF on response to PLX[…]: significantly attenuated the response
[1]; H2228 and H358 cells with HGF, COLO-201 cells with NRG1
  rescue despite activation of receptor and a downstream survival effector: not sufficient to rescue cells from kinase inhibition
[2]
  number of HER2-amplified breast cancer cell lines rescued from lapatinib: 3 of 9
